Series [1] relates to Rhinovirus A. Put plainly: Antiviral activity against Human Rhinovirus A serotype 2 infected in HeLa Rh cells assessed as reduction of virus-induced cytopathic effect after 3 days by MTS assay. The series is classed as functional, cell-based.
Series [2] has as its system Rhinovirus B. Put plainly: Antiviral activity against Human Rhinovirus B serotype 14 infected in HeLa Rh cells assessed as reduction of virus-induced cytopathic effect after 3 days by MTS assay. The class given is functional, organism-based. To be noted: serotype 14, HeLa Rh, 72 h. (In general: Cytopathic effects are the visible damage that an infection or toxin causes in cultured cells.)

A short description of series [3]: Cytotoxicity against human HeLa Rh cells assessed as cell viability by light microscopy. The series is classed as cell-based.
Series [4] is described as follows: Selectivity index, ratio of CC50 for human HeLa Rh cells to EC50 for Human Rhinovirus B serotype 14 infected in HeLa Rh cells. The class given is toxicity, cell-based. To be noted: read-out: Ratio CC50/EC50.

SMILES strings stand for the structures. Calls of active or inactive are those of the source. The calls are words filed in the database; no cut-off is given here.

For the compound `COc1cc(CC(O)c2ccc(-c3ccc(CO)cc3)cc2)c([N+](=O)[O-])cc1OC` (stereo not drawn), in series [1], the result was inactive. In addition, in series [2], the EC50 was greater than 244 µM. In addition, the CC50 in series [3] is greater than 244 µM.
As to `COc1cc(CC(O)c2ccc(-c3ccc(Cl)cc3)cc2)c([N+](=O)[O-])cc1OC` (stereo not drawn), in series [1], the outcome was inactive. Moreover, the EC50 in series [2] is greater than 4.1 µM. In addition, the CC50 in series [3] came to 4.1 µM.
Consider `COc1cc(CC(O)c2ccc(-c3ccccc3)cc2)c([N+](=O)[O-])cc1OC` (stereo not drawn), for which the EC50 in series [2] was found to be 1.97 µM.
For `COc1cc(CC(O)c2ccc(-c3cccc(CO)c3)cc2)c([N+](=O)[O-])cc1OC` (stereo not drawn), the selectivity ratio in series [4] worked out at 4.3. For the same compound, the outcome in series [1] was inactive. Also, the EC50 in series [2] came out at 1.4 µM. In addition, in series [3], the CC50 was determined as 6 µM.
For `COc1cc(CC(O)c2ccc(-c3cccc([N+](=O)[O-])c3)cc2)c([N+](=O)[O-])cc1OC` (stereo not drawn), in that order: 2.5, “inactive”, 2.2 µM and 5.5 µM.
For the compound `COc1cc(CC(O)c2ccc(-c3ccc([N+](=O)[O-])cc3)cc2)c([N+](=O)[O-])cc1OC` (stereo not drawn), in series [4], the selectivity ratio was 4.5. Besides, in series [1], the outcome was inactive. Moreover, the EC50 in series [2] stood at 4.7 µM. In addition, the cytotoxic concentration (CC50) in series [3] is 21 µM.
Regarding `COc1cc(CC(O)c2ccc(-c3ccc(C(F)(F)F)cc3)cc2)c([N+](=O)[O-])cc1OC` (stereo not drawn), in series [1], the outcome was inactive. The EC50 in series [2] was greater than 6 µM. In addition, the CC50 in series [3] stood at 4.1 µM.
For `COc1cc(CC(O)c2ccc(-c3ccc(C#N)cc3)cc2)c([N+](=O)[O-])cc1OC` (stereo not drawn), in that order: “inactive”, greater than 4.7 µM and 4.7 µM.
For `COc1cc(CC(O)c2ccc(-c3ccccc3C#N)cc2)c([N+](=O)[O-])cc1OC` (stereo not drawn), in that order: “inactive”, greater than 9.3 µM and 9.3 µM.
For the compound `COc1cc(CC(O)c2ccc(-c3ccc(C)cc3)cc2)c([N+](=O)[O-])cc1OC` (stereo not drawn), the outcome in series [1] was inactive. In addition, the EC50 in series [2] is greater than 4.7 µM. For the same compound, the 50% cytotoxic concentration (CC50) in series [3] is 4.7 µM.
Take `COc1cc(CC(O)c2ccc(-c3ccncc3)cc2)c([N+](=O)[O-])cc1OC` (stereo not drawn): in series [4], the selectivity ratio is greater than 77.3. Also, in series [1], the result was inactive. Also, in series [2], the EC50 turned out to be 3.4 µM. Besides, in series [3], the CC50 was greater than 263 µM.
Regarding `COc1cc(CC(O)c2ccc(-c3ccc(F)cc3)cc2)c([N+](=O)[O-])cc1OC` (stereo not drawn), in series [1], the outcome was inactive. For the same compound, the EC50 in series [2] was greater than 4.5 µM. Besides, the CC50 in series [3] turned out to be 4.5 µM.
On the same counts, the results for `COc1cc(CC(O)c2cccc(-c3ccc(Cl)cc3)c2)c([N+](=O)[O-])cc1OC` (stereo not drawn) are “inactive”, greater than 5 µM and 5 µM.
On the same counts, the results for `COc1cc(CC(O)c2cccc(-c3ccc(C#N)cc3)c2)c([N+](=O)[O-])cc1OC` (stereo not drawn) are “inactive”, greater than 9.3 µM and 9.3 µM.
In the case of `COc1cc(CC(O)c2ccc(-c3cccs3)cc2)c([N+](=O)[O-])cc1OC` (stereo not drawn), the selectivity ratio in series [4] came to 6.9. In series [1], the outcome was inactive. Also, the EC50 in series [2] amounted to 1.6 µM. Also, the CC50 in series [3] came out at 11 µM.
`COc1cc(CC(O)c2ccc(-c3ccccc3CO)cc2)c([N+](=O)[O-])cc1OC` (stereo not drawn): the selectivity ratio in series [4] turned out to be 8. In addition, in series [1], the outcome was inactive. Also, the EC50 in series [2] turned out to be 3 µM. The CC50 in series [3] is 24 µM.
Take `COc1cc(CC(O)c2ccc(-c3cccnc3)cc2)c([N+](=O)[O-])cc1OC` (stereo not drawn): the selectivity ratio in series [4] is greater than 132. Further, the result in series [1] was inactive. Further, the EC50 in series [2] is 2 µM. In addition, the CC50 in series [3] is greater than 263 µM.
On to `COc1cc(CC(O)c2ccc(-c3ccoc3)cc2)c([N+](=O)[O-])cc1OC` (stereo not drawn), for which the selectivity ratio in series [4] stood at 3.3. The result in series [1] was inactive. For the same compound, the EC50 in series [2] stood at 1.6 µM. Moreover, the CC50 in series [3] is 5.3 µM.
In the case of `COc1ccc(-c2ccc(C(O)Cc3cc(OC)c(OC)cc3[N+](=O)[O-])cc2)cc1` (stereo not drawn), the outcome in series [1] was inactive. Besides, in series [2], the EC50 is greater than 244 µM. Also, the CC50 in series [3] is greater than 244 µM.
`Cc1cc(CCCOc2c(C)cc(-c3noc(C(F)(F)F)n3)cc2C)on1` [PLECONARIL]: the result in series [1] was inactive. Further, in series [2], the concentration giving a half-maximal response (EC50) was 0.2 µM. For the same compound, the CC50 in series [3] came to 50.2 µM.
In the case of `COc1cc(CC(O)c2ccc(-c3cccc(F)c3)cc2)c([N+](=O)[O-])cc1OC` (stereo not drawn), the selectivity ratio in series [4] was determined as 3.4. The result in series [1] was inactive. In series [2], the EC50 worked out at 2.2 µM. In series [3], the CC50 was determined as 7.4 µM.
As for `COc1cc(CC(O)c2ccc(-c3cccc(C#N)c3)cc2)c([N+](=O)[O-])cc1OC` (stereo not drawn), in series [4], the selectivity ratio was 3.7. In addition, the outcome in series [1] was inactive. Also, in series [2], the EC50 is 1.4 µM. Further, the 50% cytotoxic concentration (CC50) in series [3] is 5.2 µM.
As to `COc1cc(CC(O)c2ccc(-c3ccccc3F)cc2)c([N+](=O)[O-])cc1OC` (stereo not drawn), the outcome in series [1] was inactive. Moreover, the EC50 in series [2] was greater than 5 µM. Besides, the CC50 in series [3] came to 5 µM.
For `COc1cc(CC(O)c2ccc(-c3ccc(Br)cc3)cc2)c([N+](=O)[O-])cc1OC` (stereo not drawn), in that order: “inactive”, greater than 4.3 µM and 4.3 µM.
`COc1cc(CC(O)c2ccc(-c3ccccc3[N+](=O)[O-])cc2)c([N+](=O)[O-])cc1OC` (stereo not drawn): the selectivity ratio in series [4] was 6.3. For the same compound, in series [1], the outcome was inactive. Besides, the EC50 in series [2] came to 1.5 µM. Further, the CC50 in series [3] stood at 9.5 µM.
With `COc1cc(CC(O)c2ccc(-c3ccc(C=O)cc3)cc2)c([N+](=O)[O-])cc1OC` (stereo not drawn), the outcome in series [1] was inactive. For the same compound, the EC50 in series [2] is greater than 245 µM. Besides, the CC50 in series [3] is greater than 245 µM.
As to `COc1cc(CC(O)c2ccc(C#N)cc2)c([N+](=O)[O-])cc1OC` (stereo not drawn), in series [2], the EC50 turned out to be 2.2 µM. Moreover, the CC50 in series [3] amounted to 104 µM.
Turning to `COc1cc(CC(O)c2ccc(-c3cccc(Cl)c3)cc2)c([N+](=O)[O-])cc1OC` (stereo not drawn), in series [4], the selectivity ratio was determined as 3.5. Also, the outcome in series [1] was inactive. The half-maximal effective concentration (EC50) in series [2] came out at 1.7 µM. Moreover, in series [3], the CC50 worked out at 5.9 µM.

A word on the EC50: it is the concentration giving half of the maximal effect. Usually CC50 stands for the concentration that lowers cell viability or growth by half.
